Data reported in ChEMBL document CHEMBL3352011, “Identification of novel 4-anilinoquinazoline derivatives as potent EGFR inhibitors both under normoxia and hypoxia” (Bioorg Med Chem, 2014).

What was measured:
A549 [1] = test: cells; format: functional, cell-based; conditions: Homo sapiens, A549, 72 h
Description: Antiproliferative activity against human A549 cells assessed as inhibition of cell proliferation under normoxia conditions after 72 hrs by SRB assay

A549 [2] = test: cells; format: functional, cell-based; conditions: Homo sapiens, A549, 72 h; remark: listed apart in the source
Description: Antiproliferative activity against human A549 cells assessed as inhibition of cell proliferation under hypoxia conditions after 72 hrs by SRB assay

HT-29 [3] = test: cells; format: functional, cell-based; conditions: Homo sapiens, HT-29, 72 h
Description: Antiproliferative activity against human HT-29 cells assessed as inhibition of cell proliferation under normoxia conditions after 72 hrs by SRB assay

HT-29 [4] = test: cells; format: functional, cell-based; conditions: Homo sapiens, HT-29, 72 h; remark: listed apart in the source
Description: Antiproliferative activity against human HT-29 cells assessed as inhibition of cell proliferation under hypoxia conditions after 72 hrs by SRB assay

[5] = target: Epidermal growth factor receptor (Homo sapiens, UniProt P00533);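 also: Wild-type EGFR enzyme inhibition, measured with a Z'-Lyte kinase assay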
Sequence of Epidermal growth factor receptor (P00533 whole entry): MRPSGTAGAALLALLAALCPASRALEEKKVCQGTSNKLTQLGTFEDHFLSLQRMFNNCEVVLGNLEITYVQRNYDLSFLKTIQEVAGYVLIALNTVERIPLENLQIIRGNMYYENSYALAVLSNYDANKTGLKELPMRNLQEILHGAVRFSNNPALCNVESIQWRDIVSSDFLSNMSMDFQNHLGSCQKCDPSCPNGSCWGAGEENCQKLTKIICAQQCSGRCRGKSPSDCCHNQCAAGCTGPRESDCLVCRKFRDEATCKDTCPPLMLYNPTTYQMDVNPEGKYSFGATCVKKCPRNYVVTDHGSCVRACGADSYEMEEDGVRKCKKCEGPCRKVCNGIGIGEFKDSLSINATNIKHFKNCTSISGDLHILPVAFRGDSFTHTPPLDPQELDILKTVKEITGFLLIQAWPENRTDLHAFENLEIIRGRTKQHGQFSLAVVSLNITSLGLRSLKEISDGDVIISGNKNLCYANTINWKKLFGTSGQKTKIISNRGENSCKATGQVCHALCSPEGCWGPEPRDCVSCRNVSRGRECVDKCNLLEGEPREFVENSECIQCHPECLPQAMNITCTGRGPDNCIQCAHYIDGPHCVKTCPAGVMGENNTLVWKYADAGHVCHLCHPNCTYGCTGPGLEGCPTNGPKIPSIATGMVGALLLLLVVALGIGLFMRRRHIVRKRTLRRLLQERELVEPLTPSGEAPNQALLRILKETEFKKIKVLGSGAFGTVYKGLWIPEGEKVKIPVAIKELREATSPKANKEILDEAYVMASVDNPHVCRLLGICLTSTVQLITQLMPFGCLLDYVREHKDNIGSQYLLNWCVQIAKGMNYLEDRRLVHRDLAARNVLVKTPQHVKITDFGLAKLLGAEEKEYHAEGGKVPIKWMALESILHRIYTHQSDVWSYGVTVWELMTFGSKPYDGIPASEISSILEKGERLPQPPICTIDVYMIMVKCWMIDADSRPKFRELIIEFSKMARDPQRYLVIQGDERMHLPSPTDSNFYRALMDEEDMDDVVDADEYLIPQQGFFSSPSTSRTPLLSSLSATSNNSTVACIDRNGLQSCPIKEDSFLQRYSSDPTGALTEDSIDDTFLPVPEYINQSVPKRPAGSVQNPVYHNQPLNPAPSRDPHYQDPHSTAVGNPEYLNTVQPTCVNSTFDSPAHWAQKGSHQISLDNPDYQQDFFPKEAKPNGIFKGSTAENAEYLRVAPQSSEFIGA
Description: Inhibition of wild type EGFR (unknown origin) by Z'-Lyte kinase assay

[6] = Bioreductive drug activation in pH 7.4 PBS solution assessed as formation of hydroxylamino-imidazole at 4.2 umol incubated for 6 hrs in presence of cysteine and zinc dust by HPLC-Q-ToF-MS method
[7] = Bioreductive drug activation in pH 7.4 PBS solution assessed as formation of imidazole radical at 4.2 umol incubated for 6 hrs in presence of cysteine and zinc dust by HPLC-Q-ToF-MS method
A549 [8] = test: Induction of apoptosis in human A549 cells at 10 uM under normoxia conditions after 72 hrs by annexin VFITC/propidium iodide staining based flow cytometry (reference value: 3.94%); format: functional
A549 [9] = test: Induction of apoptosis in human A549 cells at 10 uM under hypoxia conditions after 72 hrs by annexin VFITC/propidium iodide staining based flow cytometry (reference value: 4.7%); format: functional
[10] = Drug metabolism in mouse liver microsomes at 5 uM in presence of NADPH incubated for 30 mins under hypoxia conditions by HPLC method; format: ADME; conditions: read-out: Drug metabolism
[11] = Drug metabolism in mouse liver microsomes at 5 uM in presence of NADPH incubated for 30 mins under normoxia conditions by HPLC method; format: ADME; conditions: read-out: Drug metabolism

| SMILES | IC50 (A549 [1]) [µM] | IC50 (A549 [2]) [µM] | IC50 (HT-29 [3]) [µM] | IC50 (HT-29 [4]) [µM] | IC50 [5] [µM] | Drug metabolism [6] | Drug metabolism [7] | Activity (A549 [8]) [%] | Activity (A549 [9]) [%] | metabolised at 0.5 h, 5 µM [10] [%] | metabolised at 0.5 h, 5 µM [11] [%] |
| --- | --- | --- | --- | --- | --- | --- | --- | --- | --- | --- | --- |
| COc1cc2c(Nc3ccc(F)c(Cl)c3)ncnc2cc1OCCCCCn1ccnc1[N+](=O)[O-] | 4.26 | 1.74 | 4.08 | 1.03 |  |  |  |  |  |  |  |
| COc1cc2c(Nc3cccc(Br)c3)ncnc2cc1OCCCCCn1ccnc1[N+](=O)[O-] | 8.78 | 8.42 | 5.05 | 2.54 | 0.00033 |  |  |  |  |  |  |
| COc1cc2c(Nc3cccc(Br)c3)ncnc2cc1OCCOCCn1ccnc1[N+](=O)[O-] | 13 | 10.1 | 10.8 | 3.44 | 0.00082 |  |  |  |  |  |  |
| C#Cc1cccc(Nc2ncnc3cc(OCCCCn4ccnc4[N+](=O)[O-])c(OC)cc23)c1 | 2.21 | 1.08 | 2.52 | 0.59 | 0.00026 |  |  |  |  |  |  |
| COc1cc2c(Nc3ccc(F)c(Cl)c3)ncnc2cc1OCCCCCCn1ccnc1[N+](=O)[O-] | 13.4 | 6.52 | 5.63 | 1.84 | 0.00144 |  |  |  |  |  |  |
| COc1cc2c(Nc3ccc(OCc4cccc(F)c4)c(Cl)c3)ncnc2cc1OCCCn1ccnc1[N+](=O)[O-] | 3.97 | 1.52 | 3.79 | 0.94 | 0.0305 |  |  |  |  |  |  |
| COc1cc2c(Nc3cccc(Br)c3)ncnc2cc1OCCCCCCn1ccnc1[N+](=O)[O-] | 30.2 | 20.2 | 10.5 | 4.3 | 0.00078 |  |  |  |  |  |  |
| COc1cc2c(Nc3ccc(OCc4cccc(F)c4)c(Cl)c3)ncnc2cc1OCCCCn1ccnc1[N+](=O)[O-] | 10.5 | 8.69 | 4.49 | 2.27 |  |  |  |  |  |  |  |
| COc1cc2c(Nc3ccc(OCc4cccc(F)c4)c(Cl)c3)ncnc2cc1OCCCCCn1ccnc1[N+](=O)[O-] | 19.9 | 14.4 | 14.1 | 5.04 | 0.0166 |  |  |  |  |  |  |
| COc1cc2c(Nc3cccc(Br)c3)ncnc2cc1OCCCCn1ccnc1[N+](=O)[O-] | 3.09 | 1.97 | 4.02 | 1.43 | 0.00037 |  |  |  |  |  |  |
| COc1cc2c(Nc3ccc(F)c(Cl)c3)ncnc2cc1OCCCCn1ccnc1[N+](=O)[O-] | 2.67 | 1.41 | 1.54 | 0.67 | 0.00031 |  |  |  |  |  |  |
| C#Cc1cccc(Nc2ncnc3cc(OCCCCCCn4ccnc4[N+](=O)[O-])c(OC)cc23)c1 | 10.3 | 2.7 | 4.5 | 1.37 | 0.00057 |  |  |  |  |  |  |
| COc1cc2c(Nc3ccc(OCc4cccc(F)c4)c(Cl)c3)ncnc2cc1OCCOCCn1ccnc1[N+](=O)[O-] | 5.06 | 6.23 | 7.64 | 2.59 | 0.0201 |  |  |  |  |  |  |
| C#Cc1cccc(Nc2ncnc3cc(OCCCn4ccnc4[N+](=O)[O-])c(OC)cc23)c1 | 2.31 | 1.17 | 3.17 |  |  |  |  |  |  |  |  |
| COc1cc2c(Nc3cccc(Br)c3)ncnc2cc1OCCCn1ccnc1[N+](=O)[O-] | 13.5 | 7.83 | 10.9 | 2.82 | 0.00049 |  |  |  |  |  |  |
| C#Cc1cccc(Nc2ncnc3cc(OCCOCCn4ccnc4[N+](=O)[O-])c(OC)cc23)c1 | 9.77 | 6.43 | 8.77 | 6.04 | 0.00054 |  |  |  |  |  |  |
| COc1cc2c(Nc3ccc(F)c(Cl)c3)ncnc2cc1OCCOCCn1ccnc1[N+](=O)[O-] | 12.9 | 7.64 | 9.86 | 5.52 | 0.00032 |  |  |  |  |  |  |
| COc1cc2c(Nc3ccc(F)c(Cl)c3)ncnc2cc1OCCCn1ccnc1[N+](=O)[O-] | 5.91 | 4.31 | 6.14 | 2.06 | 0.00077 |  |  |  |  |  |  |
| C#Cc1cccc(Nc2ncnc3cc(OCCCCCn4ccnc4[N+](=O)[O-])c(OC)cc23)c1 | 0.77 | 0.18 | 1.31 | 0.28 | 0.00047 | Metabolite detected | Metabolite detected | 12.46 | 26.15 | > 80 | < 10 |
| COc1cc2c(Nc3ccc(OCc4cccc(F)c4)c(Cl)c3)ncnc2cc1OCCCCCCn1ccnc1[N+](=O)[O-] | > 50 | > 50 | > 50 | > 50 | 0.0355 |  |  |  |  |  |  |
| Nc1n[n+]([O-])c2ccccc2[n+]1[O-] [TIRAPAZAMINE] | > 50 | 6.9 | > 50 |  |  |  |  |  |  |  |  |
